Reference: the NIST ThermoML archive (doi:10.1021/je9008014)

Test: xn = mol fraction of the nth substance listed
Details: 101 kPa, Liquid; for mass density: Pycnometric method

CCOCCOCCOCCO [2-(2-(2-ethoxyethoxy)ethoxy)ethanol] + O
Details	mass density [kg/m3]	viscosity [mPa·s]
293.15 K, x1 = 0.01119	1006.9	1.484
293.15 K, x1 = 0.02492	1016.6	2.221
293.15 K, x1 = 0.04128	1026.2	3.256
293.15 K, x1 = 0.06284	1035.1	4.832
293.15 K, x1 = 0.09179	1040.8	6.993
293.15 K, x1 = 0.1317	1042.7	9.102
293.15 K, x1 = 0.1905	1042.2	10.54
293.15 K, x1 = 0.2885	1038.7	11.29
293.15 K, x1 = 0.4019	1033.6	11.34
293.15 K, x1 = 0.4747	1031.1	10.93
293.15 K, x1 = 0.6076	1027.3	10.06
293.15 K, x1 = 0.7399	1024.4	9.168
293.15 K, x1 = 0.8176	1022.9	8.738
293.15 K, x1 = 0.8956	1021.8	8.353
293.15 K, x1 = 1	1020.6	7.796
298.15 K, x1 = 1	1016.3	6.739
303.15 K, x1 = 0.01119	1003.7	1.129
303.15 K, x1 = 0.02492	1012.6	1.595
303.15 K, x1 = 0.04128	1020.7	2.344
303.15 K, x1 = 0.06284	1028.7	3.349
303.15 K, x1 = 0.09179	1032.8	4.589
303.15 K, x1 = 0.1317	1034.9	5.955
303.15 K, x1 = 0.1905	1033.9	7.032
303.15 K, x1 = 0.2885	1029.8	7.522
303.15 K, x1 = 0.4019	1024.9	7.547
303.15 K, x1 = 0.4747	1022.3	7.378
303.15 K, x1 = 0.6076	1018.5	6.868
303.15 K, x1 = 0.7399	1015.5	6.386
303.15 K, x1 = 0.8176	1014.1	6.178
303.15 K, x1 = 0.8956	1013.1	5.884
303.15 K, x1 = 1	1011.9	5.657
308.15 K, x1 = 1	1008.1	–
313.15 K, x1 = 0.01119	999.7	0.9341
313.15 K, x1 = 0.02492	1007.5	1.261
313.15 K, x1 = 0.04128	1014.8	1.747
313.15 K, x1 = 0.06284	1021.8	2.429
313.15 K, x1 = 0.09179	1025.3	3.265
313.15 K, x1 = 0.1317	1026.5	4.072
313.15 K, x1 = 0.1905	1025.5	4.899
313.15 K, x1 = 0.2885	1021.4	5.382
313.15 K, x1 = 0.4019	1016.5	5.391
313.15 K, x1 = 0.4747	1013.9	5.226
313.15 K, x1 = 0.6076	1010.2	4.953
313.15 K, x1 = 0.7399	1007.4	4.586
313.15 K, x1 = 0.8176	1006.1	4.457
313.15 K, x1 = 0.8956	1005.1	4.315
313.15 K, x1 = 1	1003.9	4.185
323.15 K, x1 = 0.01119	995.1	0.7411
323.15 K, x1 = 0.02492	1002.1	1.013
323.15 K, x1 = 0.04128	1008.7	1.369
323.15 K, x1 = 0.06284	1014.4	1.859
323.15 K, x1 = 0.09179	1017.4	2.436
323.15 K, x1 = 0.1317	1018.1	3.015
323.15 K, x1 = 0.1905	1016.8	3.558
323.15 K, x1 = 0.2885	1012.7	3.942
323.15 K, x1 = 0.4019	1007.7	3.965
323.15 K, x1 = 0.4747	1005.2	3.885
323.15 K, x1 = 0.6076	1001.6	3.735
323.15 K, x1 = 0.7399	998.8	3.552
323.15 K, x1 = 0.8176	997.6	3.509
323.15 K, x1 = 0.8956	996.6	3.437
323.15 K, x1 = 1	995.5	3.326
333.15 K, x1 = 0.01119	989.6	0.6117
333.15 K, x1 = 0.02492	995.7	0.8193
333.15 K, x1 = 0.04128	1001.9	1.092
333.15 K, x1 = 0.06284	1006.2	1.433
333.15 K, x1 = 0.09179	1008.5	1.853
333.15 K, x1 = 0.1317	1008.7	2.252
333.15 K, x1 = 0.1905	1007.3	2.652
333.15 K, x1 = 0.2885	1003.1	2.923
333.15 K, x1 = 0.4019	998.5	3.006
333.15 K, x1 = 0.4747	996.1	2.953
333.15 K, x1 = 0.6076	992.5	2.879
333.15 K, x1 = 0.7399	989.8	2.774
333.15 K, x1 = 0.8176	988.6	2.728
333.15 K, x1 = 0.8956	987.7	2.697
333.15 K, x1 = 1	986.7	2.627
